Measured values as given in patent US20240091248A1, “METHODS OF TREATING ACUTE MYELOID LEUKEMIA AND MANAGING CYTOPENIA” (GENENTECH, INC., priority 2021, published 2024).

Experiments:
[1] = test system: patients with acute myeloid leukemia (AML); assay: measurable residual disease (MRD) response analysis of the phase 3 study; assay type: in vivo, human; settings: p<0.001
Procedure: Methods: Enrolled patients were ≥18 years and unfit for intensive chemotherapy. Patients received Ven 400 mg orally; days 1-28 and Aza 75 mg/m^2; days 1-7/28-day cycle. Bone marrow aspirate samples for multiparametric flow cytometry assessments by integrated leukemia-associated immunophenotypes and different than normal procedures were collected for central analysis (Covance Central Laboratory Services) at baseline, end of cycle 1, and every 3 cycles thereafter. Assessments were performed independent of disease responses. MRD response was defined as <1 residual blast/1000 leukocytes (<10^−3). CRc, DoR, OS, and EFS were assessed. Disease assessments were per modified International Working Group response criteria for AML.

[2] = test system: patients with acute myeloid leukemia (AML); assay: venetoclax exposure versus overall survival in CR/CRh patients with post-remission cytopenia; assay type: in vivo, human; settings: switched to 21-day dosing or remained on 28-day dosing, Cox proportional-hazards models
Mcl-1 = Mcl-1 (Homo sapiens, UniProt Q07820); settings: cited from earlier work
Chain of Mcl-1 (Q07820 whole entry): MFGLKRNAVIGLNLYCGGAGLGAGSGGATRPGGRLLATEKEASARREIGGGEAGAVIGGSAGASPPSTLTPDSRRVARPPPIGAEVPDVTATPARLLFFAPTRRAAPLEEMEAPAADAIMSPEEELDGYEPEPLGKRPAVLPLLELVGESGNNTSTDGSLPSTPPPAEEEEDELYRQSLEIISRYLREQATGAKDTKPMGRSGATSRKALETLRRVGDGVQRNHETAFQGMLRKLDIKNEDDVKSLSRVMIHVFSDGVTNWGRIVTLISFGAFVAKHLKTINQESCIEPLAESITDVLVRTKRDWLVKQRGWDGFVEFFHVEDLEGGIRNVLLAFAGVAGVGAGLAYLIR

SMILES	rate of composite complete remission (CRc) and MRD response (MRD<10^−3) [1]	relationship between venetoclax exposure (Cavg) and overall survival [2]	Ki (Mcl-1)
Nc1ncn([C@@H]2O[C@H](CO)[C@@H](O)[C@H]2O)c(=O)n1 [Aza, 4-amino-1-β-D-ribofuranosyl-s-triazin-2(1H)-one]	7.6%	–	–
CC1(C)CCC(CN2CCN(c3ccc(C(=O)NS(=O)(=O)c4ccc(NCC5CCOCC5)c([N+](=O)[O-])c4)c(Oc4cnc5[nH]ccc5c4)c3)CC2)=C(c2ccc(Cl)cc2)C1 [venetoclax, 4-(4-{[2-(4-chlorophenyl)-4,4-dimethylcyclohex-1-en-1-yl]methyl}piperazin-1-yl)-N-({3-nitro-4-[(tetrahydro-2H-pyran-4-ylmethyl)amino]phenyl}sulfonyl)-2-(1H-pyrrolo[2,3-b]pyridin5-yloxy)benzamide]	–	no apparent relationship	> 444 nM
